Measurements: US11504395B2, “Oral pyrophosphate for use in reducing tissue calcification” (Stichting Het Nederlands Kanker Instituut-Antoni van …, priority 2016, dated 2022)
Read-outs that look alike come from different tables or passages of the source.

Assays:
[1] = system: Tiptoe walking (ttw) mice
Method: (§1) All animals were housed in approved animal facilities at the Research Center for Natural Sciences, Hungarian Academy of Sciences. Mice were kept under routine laboratory conditions with 12 hour light-dark cycle with ad libitum access to water and chow. The RCNS, Hungarian Academy of Sciences Institutional Animal Care and Use Committees approved this study. Experiments have been conducted according to national guidelines. Cryo injury was performed and tissue calcium content was determined as described by Brampton, et al. ((2014) Am J Pathol. 184, 159-70). Calcification of the vibrissae was studied by histochemistry following the method described Klement, et al. ((2005) Mol Cell Biol. 25, 8299-310. The number of calcified vibrissae (hair capsules) was counted independently and the onset of tiptoe walking phenotype was determined by two investigators in a blinded fashion.
Tiptoe walking (ttw) mice have an inactivating mutation in Enpp1 and represent a model for GACI.

Abcc6−/− mice = system: Abcc6−/− mice
Method: The calcium content of heart tissue was determined.
as §1
Abcc6^−/− mice faithfully recapitulate human PXE, with calcifying lesions found in skin, eyes and blood vessels. A drawback of the Abcc6^−/− mice is the relatively late onset of the first lesions, making this model less convenient for rapid screening of new treatments.

In the case of `O.O.O.O.O.O.O.O.O.O.O=P([O-])([O-])OP(=O)([O-])[O-].[Na+].[Na+].[Na+].[Na+]` [PPi, Sodium pyrophosphate tetrabasic decahydrate], the “calcification of the dermal sheet surrounding the vibrissae” value ([1]; 10 mM oral PPi during pregnancy and lactation and continued in pups after weaning, ttw mice, FIG. 3) is reported as “greatly reduced”, the “calcification of the dermal sheet surrounding the vibrissae” value ([1]; PPi provided during lactation, ttw mice) is reported as “no significant impact” and the “calcification of the dermal sheet surrounding the vibrissae” value ([1]; ttw pups treated with PPi only after weaning) is reported as “no different from the control-treated group”. The “cardiac calcification (ICC) induced by cryo-injury” value (Abcc6−/− mice; IP delivery, 6 mg PPi/kg body weight for 7 days, Abcc6−/− mice, data not shown) was “reduced” and the “PPi concentration giving maximal inhibition of ICC” value (Abcc6−/− mice; PPi in drinking water, dose-dependent inhibition, FIG. 1) was 10 mM.
